Source: patent US20230115274A1, “COMPOUNDS AND COMPOSITIONS FOR TREATING CONDITIONS ASSOCIATED WITH STING ACTIVITY” (IFM Due, Inc., priority 2019, published 2023)

Biological target: T1, hSTING (Homo sapiens, UniProt Q86WV6, G230A/H232R/R293Q/R71H)
T1 construct: host or cells: THP1-Dual KO-IFNAR2 cells
Assay: STING reporter assay (luciferase) in THP1-Dual KO-IFNAR2 cells stimulated with 2′3′cGAMP
Type: cell-based
Conditions: 2′3′cGAMP 15 μM, 24 h, class symbols
Method: STING pathway activation by the compounds described herein was measured using THP1-Dual™ cells (KO-IFNAR2).
THP1-Dual™ KO-IFNAR2 Cells (obtained from invivogen) were maintained in RPMI, 10% FCS, 5 ml P/S, 2 mM L-glut, 10 mM Hepes, and 1 mM sodium pyruvate. Compounds were spotted in empty 384 well tissue culture plates (Greiner 781182) by Echo for a final concentration of 0.0017-100 μM. Cells were plated into the TC plates at […], 2×10E6 cells/mL. For activation with STING ligand, 2′3′cGAMP (MW 718.38, obtained from Invivogen), was prepared in Optimem media.
The following solutions were prepared for each 1×384 plate: • Solution A: 2 mL Optimem with one of the following stimuli: • […] • Solution B: 2 mL Optimem with 60 μL Lipofectamine 2000->Incubate 5 min at RT
2 mL of solution A and 2 ml Solution B was mixed and incubated for 20 min at room temperature (RT). 20 uL of transfection solution (A+B) was added on top of the plated cells, with a final 2′3′cGAMP concentration of 15 μM. The plates were then centrifuged immediately at 340 g for 1 minute, after which they were incubated at 37° C., 5% CO2, >98% humidity for 24 h. Luciferase reporter activity was then measured. EC50 values were calculated by using standard methods known in the art.
Luciferase reporter assay: 10 μL of supernatant from the assay was transferred to white 384-plate with flat bottom and squared wells. One pouch of QUANTI-Luc™ Plus was dissolved in 25 mL of water. 100 μL of QLC Stabilizer per 25 mL of QUANTI-Luc™ Plus solution was added. 50 μL of QUANTI-Luc™ Plus/QLC solution per well was then added. Luminescence was measured on a Platereader (e.g., Spectramax I3X (Molecular Devices GF3637001)).
Luciferase reporter activity was then measured. EC50 values were calculated by using standard methods known in the art.

T1 sequence (Q86WV6 whole entry R71H/G230A/H232R/R293Q): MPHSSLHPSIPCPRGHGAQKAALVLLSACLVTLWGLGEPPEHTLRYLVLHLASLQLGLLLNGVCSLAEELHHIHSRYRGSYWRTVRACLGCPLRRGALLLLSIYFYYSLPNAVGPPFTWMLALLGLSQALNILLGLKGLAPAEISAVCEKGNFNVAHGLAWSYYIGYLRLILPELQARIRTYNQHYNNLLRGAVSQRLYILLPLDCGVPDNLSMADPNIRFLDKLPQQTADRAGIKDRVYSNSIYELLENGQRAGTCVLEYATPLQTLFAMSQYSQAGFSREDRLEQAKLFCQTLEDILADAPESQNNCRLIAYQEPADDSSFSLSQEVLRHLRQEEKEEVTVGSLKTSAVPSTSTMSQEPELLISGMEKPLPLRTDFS

| Compound | EC50 [nM] |
| --- | --- |
| Cc1cc(NC(=O)Nc2c[nH]c3c(F)cncc23)cnc1N1CCC(F)(F)CC1 [Compound 172, 1-(6-(4,4-difluoropiperidin-1-yl)-5-methylpyridin-3-yl)-3-(7-fluoro-1H-pyrrolo[3,2-c]pyridin-3-yl)urea] | 1000 to 5000 |
| O=C(Nc1ccc(C2CCC(F)(F)CC2)nc1)Nc1cn(Cc2ccccc2)c2ncc(F)cc12 [Compound 104, 1-(1-benzyl-5-fluoro-1H-pyrrolo[2,3-b]pyridin-3-yl)-3-(6-(4,4-difluorocyclohexyl)pyridin-3-yl)urea] | 5000 to 100000 |
| O=C(Nc1ccc(C2CCC(F)(F)CC2)nc1)Nc1c[nH]c2ncc(F)c(Br)c12 [Compound 182, 1-(4-bromo-5-fluoro-1H-pyrrolo[2,3-b]pyridin-3-yl)-3-(6-(4,4-difluorocyclohexyl)pyridin-3-yl)urea] | 5000 to 100000 |
| O=C(Nc1ccc(N2CCC(F)(F)CC2)nn1)Nc1c[nH]c2ncc(F)cc12 [Compound 193, 1-(6-(4,4-difluoropiperidin-1-yl)pyridazin-3-yl)-3-(5-fluoro-1H-pyrrolo[2,3-b]pyridin-3-yl)urea] | 5000 to 100000 |
| CN(C(=O)OC(C)(C)C)C1CC(n2cc(NC(=O)Nc3ccc(C4CCC(F)(F)CC4)nc3)c3cc(F)cnc32)C1 (centres unmarked) [Compound 101, tert-butyl (3-(3-(3-(6-(4,4-difluorocyclohexyl)pyridin-3-yl)ureido)-5-fluoro-1H-pyrrolo[2,3-b]pyridin-1-yl)cyclobutyl)(methyl)carbamate] | 5000 to 100000 |
| O=C(Nc1cnc(N2CCC(F)(F)CC2)c(Cl)c1)Nc1c[nH]c2cc(Br)cnc12 [Compound 240, 1-(6-bromo-1H-pyrrolo[3,2-b]pyridin-3-yl)-3-(5-chloro-6-(4,4-difluoropiperidin-1-yl)pyridin-3-yl)urea] | 5000 to 100000 |
| O=C(Nc1ccc(C2CCC(F)(F)CC2)nc1)Nc1c[nH]c2nc(Br)c(F)cc12 [Compound 180, 1-(6-bromo-5-fluoro-1H-pyrrolo[2,3-b]pyridin-3-yl)-3-(6-(4,4-difluorocyclohexyl)pyridin-3-yl)urea] | 5000 to 100000 |
| O=C(Nc1cnc(N2CCC(F)(F)CC2)c(Cl)c1)Nc1c[nH]c2ccc(Cl)nc12 [Compound 144, 1-(5-chloro-1H-pyrrolo[3,2-b]pyridin-3-yl)-3-(5-chloro-6-(4,4-difluoropiperidin-1-yl)pyridin-3-yl)urea] | 200 to 1000 |

Results, then the compound that gave them:

| EC50 [nM] | Compound |
| --- | --- |
| 200 to 1000 | O=C(Nc1cnc(N2CCN(CC(F)(F)F)CC2)c(Cl)c1)Nc1c[nH]c2cccnc12 [Compound 227, 1-(5-chloro-6-(4-(2,2,2-trifluoroethyl)piperazin-1-yl)pyridin-3-yl)-3-(1H-pyrrolo[3,2-b]pyridin-3-yl)urea] |
| 200 to 1000 | O=C(Nc1ccc(N2CCC(F)(F)CC2)nc1)Nc1c[nH]c2ncc(F)cc12 [Compound 118, 1-(6-(4,4-difluoropiperidin-1-yl)pyridin-3-yl)-3-(5-fluoro-1H-pyrrolo[2,3-b]pyridin-3-yl)urea] |
| 200 to 1000 | O=C(Nc1ccc(C2CC(F)(F)C2)c(F)c1)Nc1c[nH]c2ncc(F)cc12 [Compound 201, 1-(4-(3,3-difluorocyclobutyl)-3-fluorophenyl)-3-(5-fluoro-1H-pyrrolo[2,3-b]pyridin-3-yl)urea] |
| 200 to 1000 | COc1ccc2[nH]cc(NC(=O)Nc3ccc(C4CCC(F)(F)CC4)c(C#N)c3)c2n1 [Compound 150, 1-(3-cyano-4-(4,4-difluorocyclohexyl)phenyl)-3-(5-methoxy-1H-pyrrolo[3,2-b]pyridin-3-yl)urea] |
| 200 to 1000 | O=C(Nc1cnc(N2CCC(F)(F)CC2)c(Cl)c1)Nc1c[nH]c2ccc(OCC(F)(F)F)nc12 [Compound 208, 1-(5-chloro-6-(4,4-difluoropiperidin-1-yl)pyridin-3-yl)-3-(5-(2,2,2-trifluoroethoxy)-1H-pyrrolo[3,2-b]pyridin-3-yl)urea] |
| 200 to 1000 | N#Cc1cc(NC(=O)Nc2c[nH]c3cccnc23)ccc1C1CCC(F)(F)CC1 [Compound 148, 1-(3-cyano-4-(4,4-difluorocyclohexyl)phenyl)-3-(1H-pyrrolo[3,2-b]pyridin-3-yl)urea] |
| 40 to 200 | O=C(Nc1cnc(N2CCC(F)(F)CC2)c(Cl)c1)Nc1c[nH]c2ccc(Br)nc12 [Compound 236, 1-(5-bromo-1H-pyrrolo[3,2-b]pyridin-3-yl)-3-(5-chloro-6-(4,4-difluoropiperidin-1-yl)pyridin-3-yl)urea] |
| 200 to 1000 | COCCOc1ccc2[nH]cc(NC(=O)Nc3cnc(C4CCC(F)(F)CC4)c(Cl)c3)c2n1 [Compound 211, 1-(5-chloro-6-(4,4-difluorocyclohexyl)pyridin-3-yl)-3-(5-(2-methoxyethoxy)-1H-pyrrolo[3,2-b]pyridin-3-yl)urea] |
| 200 to 1000 | O=C(Nc1ccc(C2CCC(F)(F)CC2)nc1)Nc1c[nH]c2ncc(F)cc12 [Compound 116, 1-(6-(4,4-difluorocyclohexyl)pyridin-3-yl)-3-(5-fluoro-1H-pyrrolo[2,3-b]pyridin-3-yl)urea] |
| 200 to 1000 | COc1ccc2[nH]cc(NC(=O)Nc3cnc(C4CCC(F)(F)CC4)c(C)c3)c2n1 [Compound 169, 1-(6-(4,4-difluorocyclohexyl)-5-methylpyridin-3-yl)-3-(5-methoxy-1H-pyrrolo[3,2-b]pyridin-3-yl)urea] |
| 200 to 1000 | COc1ccc2[nH]cc(NC(=O)Nc3cnc(N4CCC(F)(F)CC4)c(C)c3)c2n1 [Compound 173, 1-(6-(4,4-difluoropiperidin-1-yl)-5-methylpyridin-3-yl)-3-(5-methoxy-1H-pyrrolo[3,2-b]pyridin-3-yl)urea] |
| 40 to 200 | COc1ccc2[nH]cc(NC(=O)Nc3cnc(C4CCC(F)(F)CC4)c(Cl)c3)c2n1 [Compound 233, 1-(5-chloro-6-(4,4-difluorocyclohexyl)pyridin-3-yl)-3-(5-methoxy-1H-pyrrolo[3,2-b]pyridin-3-yl)urea] |
| 200 to 1000 | O=C(Nc1ccc(C2CCC(F)(F)CC2)nc1)Nc1c[nH]c2ncc(Cl)cc12 [Compound 108, 1-(5-chloro-1H-pyrrolo[2,3-b]pyridin-3-yl)-3-(6-(4,4-difluorocyclohexyl)pyridin-3-yl)urea] |
| 200 to 1000 | O=C(Nc1cnc(C2CCC(F)(F)CC2)c(Cl)c1)Nc1c[nH]c2ncc(F)cc12 [Compound 199, 1-(5-chloro-6-(4,4-difluorocyclohexyl)pyridin-3-yl)-3-(5-fluoro-1H-pyrrolo[2,3-b]pyridin-3-yl)urea] |

Same assay, conditions: 2′3′cGAMP 15 μM, 24 h, numeric bounds

| Compound | EC50 [nM] |
| --- | --- |
| O=C(Nc1ccc(C2CCC(F)(F)CC2)nc1)Nc1cn(C2CCNCC2)c2ncc(F)cc12 [Compound 128, 1-(6-(4,4-difluorocyclohexyl)pyridin-3-yl)-3-(5-fluoro-1-(piperidin-4-yl)-1H-pyrrolo[2,3-b]pyridin-3-yl)urea] | > 30000 |
| Cc1cc(NC(=O)Nc2c[nH]c3ncc(F)cc23)cnc1N1CCOCC1 [Compound 167, 1-(5-fluoro-1H-pyrrolo[2,3-b]pyridin-3-yl)-3-(5-methyl-6-morpholinopyridin-3-yl)urea] | > 30000 |
| Cc1cc(N2CCC(F)(F)CC2)ncc1NC(=O)Nc1c[nH]c2ncc(F)cc12 [Compound 185, 1-(6-(4,4-difluoropiperidin-1-yl)-4-methylpyridin-3-yl)-3-(5-fluoro-1H-pyrrolo[2,3-b]pyridin-3-yl)urea] | > 30000 |
| O=C(Nc1cnn(C2CCC(F)(F)CC2)c1)Nc1c[nH]c2cccnc12 [Compound 205, 1-(1-(4,4-difluorocyclohexyl)-1H-pyrazol-4-yl)-3-(1H-pyrrolo[3,2-b]pyridin-3-yl)urea] | > 30000 |
